Measured values taken from patent US20180214583A1, “PHARMACEUTICAL COMBINATION FOR THE TREATMENT OF CANCER” (BAYER PHARMA AKTIENGESELLSCHAFT, priority 2015, published 2018).

Legend:
[1] = tested on: diffuse large B-cell lymphoma (DLBCL); conditions: cited from earlier work
[2] = tested on: bone metastatic prostate tumors; experiment: Radium-223 with anti-PD-L1 immunotherapy in bone metastatic prostate cancer mice models; format: in vivo
Method: PD-L1 expression after Ra-223 treatment, and blocking PD-L1 combined with Ra-223 as a treatment for bone metastatic prostate cancer is examined in bone metastatic prostate cancer mice models.
The safety and efficacy of Ra-223 combined with anti-PD-L1 antibody versus Ra-223 or […] alone and radiation therapy as controls are tested. A genetically engineered mouse model (Pten/Smad4-null FVB mice, Ding et al., Nature 2011) is used. Treatments are initiated in mice with established tumors. The goal here is to evaluate treatment efficacy. At the experimental endpoint, tumor volume, metastatic burden (lung and liver) and mouse survival is measured.

[3] = single dose 250 kBq per kg body weight; cited from earlier work

| Molecule | subjects progression-free at the end of the follow-up period ([1]; DLBCL subjects after autologous stem cell transplantation, preliminary results, control group 47%) [%] | subjects alive ([1]; DLBCL subjects after autologous stem cell transplantation, preliminary results, control group 62%) [%] | effect on natural killer cells ([1]; phase II trial) | PD-L1 expression after treatment [2] | cases of grade 3 neutropenia [3] | observed adverse reactions [3] |
| --- | --- | --- | --- | --- | --- | --- |
| CT-011: humanized IgG 1 monoclonal antibody against PD-1 | 70 | 82 | augments the activity of natural killer cells | – | – | – |
| [Cl][223Ra][Cl] [radium-223, radium-223 dichloride] | – | – | – | upregulates PD-L1 expression | 1/5 | diarrhea and reversible myelosuppression |
